# Data as given in ChEMBL document CHEMBL1201862, “PubChem BioAssay data set” (2004).
#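 Dose response: 5 concentrations. Exposure: 48 h. Format: 96-well plates. Endpoint: linear interpolation; highest concentration if not reached. Abbreviation: GI50, concentration required for 50% inhibition of growth.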 Calls of active or inactive are those of the source. Cut-off read from the data, not from the text of the source: active = GI50 up to about 1.1 µM and inactive = higher.
# Legend:
# Experiment in all cases: NCI anticancer screen, dose series, 48 h
# SNB-75 = test system: SNB-75
# KM12 = test system: KM12
# COLO 205 = test system: COLO 205
# SN12C = test system: SN12C
# LOX IMVI = test system: LOX IMVI
# MOLT-4 = test system: MOLT-4
# SNB-19 = test system: SNB-19
# SW-620 = test system: SW-620
# NCI-H23 = test system: NCI-H23
# UACC-62 = test system: UACC-62
# IGROV-1 = test system: IGROV-1
# Malme-3M = test system: Malme-3M
# U-251 = test system: U-251
# M19-MEL = test system: M19-MEL
# NCI-H460 = test system: NCI-H460
# MDA-N = test system: MDA-N
# PC-3 = test system: PC-3
# NCI-H522 = test system: NCI-H522
# XF498 = test system: XF498
# SNB-78 = test system: SNB-78
# RXF 393 = test system: RXF 393
# NCI-H226 = test system: NCI-H226
# UACC-257 = test system: UACC-257
# DMS-273 = test system: DMS-273
# RPMI-8226 = test system: RPMI-8226
# CAKI-1 = test system: CAKI-1
# SR = test system: SR
# SK-MEL-2 = test system: SK-MEL-2
# Hs-578T = test system: Hs-578T
# HOP-62 = test system: HOP-62
# HCT-116 = test system: HCT-116
# TK-10 = test system: TK-10
# A549 = test system: A549
# UO-31 = test system: UO-31
# MDA-MB-231 = test system: MDA-MB-231
# KM-20L2 = test system: KM-20L2
# 786-0 = test system: 786-0
# SK-MEL-5 = test system: SK-MEL-5
# A498 = test system: A498
# HCC 2998 = test system: HCC 2998
# OVCAR-3 = test system: OVCAR-3
# OVCAR-5 = test system: OVCAR-5
# SF-268 = test system: SF-268
# HOP-92 = test system: HOP-92
# T47D = test system: T47D
# OVCAR-8 = test system: OVCAR-8
# HT-29 = test system: HT-29
# EKVX = test system: EKVX
# HL-60 = test system: HL-60
# HOP-18 = test system: HOP-18
# MCF7 = test system: MCF7
# SF-539 = test system: SF-539
# DU-145 = test system: DU-145
# M14 = test system: M14
# DLD-1 = test system: DLD-1
# SK-MEL-28 = test system: SK-MEL-28
# RXF 631 = test system: RXF 631
# CCRF-CEM = test system: CCRF-CEM
# NCI/ADR-RES = test system: NCI/ADR-RES
# K562 = test system: K562
# SF-295 = test system: SF-295
# HCT-15 = test system: HCT-15
# SK-OV-3 = test system: SK-OV-3
# ACHN = test system: ACHN
# MDA-MB-435 = test system: MDA-MB-435
# OVCAR-4 = test system: OVCAR-4
# LXFL 529 = test system: LXFL 529
compound,measurement,setting,value
C=C1C(=O)C23CC1CCC2C12CO[C@@]3(O)[C@@H](O)C1C(C)(C)C=CC2=O (stereo partly drawn),GI50,SNB-75,6.03 µM (inactive)
same,GI50,KM12,14.6 µM (inactive)
same,GI50,COLO 205,0.714 µM (active)
same,GI50,SN12C,1.15 µM (inactive)
same,GI50,LOX IMVI,3.63 µM (inactive)
same,GI50,MOLT-4,0.281 µM (active)
same,GI50,SNB-19,1.41 µM (inactive)
same,GI50,SW-620,2.93 µM (inactive)
same,GI50,NCI-H23,0.752 µM (active)
same,GI50,UACC-62,0.989 µM (active)
same,GI50,IGROV-1,3.94 µM (inactive)
same,GI50,Malme-3M,0.755 µM (active)
same,GI50,U-251,1.49 µM (inactive)
same,GI50,M19-MEL,0.824 µM (active)
same,GI50,NCI-H460,0.713 µM (active)
same,GI50,MDA-N,2.98 µM (inactive)
same,GI50,PC-3,2.74 µM (inactive)
same,GI50,NCI-H522,1.24 µM (inactive)
same,GI50,XF498,0.791 µM (active)
same,GI50,SNB-78,0.718 µM (active)
same,GI50,RXF 393,0.728 µM (active)
same,GI50,NCI-H226,6.44 µM (inactive)
same,GI50,UACC-257,0.684 µM (active)
same,GI50,DMS-273,0.568 µM (active)
same,GI50,RPMI-8226,0.75 µM (active)
same,GI50,CAKI-1,2.44 µM (inactive)
same,GI50,SR,0.186 µM (active)
same,GI50,SK-MEL-2,0.925 µM (active)
same,GI50,Hs-578T,31.6 µM (inactive)
same,GI50,HOP-62,7.41 µM (inactive)
same,GI50,HCT-116,0.488 µM (active)
same,GI50,TK-10,0.893 µM (active)
same,GI50,A549,2.03 µM (inactive)
same,GI50,UO-31,1.73 µM (inactive)
same,GI50,MDA-MB-231,3.85 µM (inactive)
same,GI50,KM-20L2,1.44 µM (inactive)
same,GI50,786-0,0.653 µM (active)
same,GI50,SK-MEL-5,6.65 µM (inactive)
same,GI50,A498,> 10 µM (inactive)
same,GI50,HCC 2998,1.15 µM (inactive)
same,GI50,OVCAR-3,1.11 µM (active)
same,GI50,OVCAR-5,4.76 µM (inactive)
same,GI50,SF-268,1.65 µM (inactive)
same,GI50,HOP-92,0.785 µM (active)
same,GI50,T47D,5.38 µM (inactive)
same,GI50,OVCAR-8,0.16 µM (active)
same,GI50,HT-29,0.234 µM (active)
same,GI50,EKVX,5.26 µM (inactive)
same,GI50,HL-60,0.143 µM (active)
same,GI50,HOP-18,1.19 µM (inactive)
same,GI50,MCF7,2.44 µM (inactive)
same,GI50,SF-539,0.861 µM (active)
same,GI50,DU-145,23.4 µM (inactive)
same,GI50,M14,2.75 µM (inactive)
same,GI50,DLD-1,0.721 µM (active)
same,GI50,SK-MEL-28,0.738 µM (active)
same,GI50,RXF 631,1.03 µM (active)
same,GI50,CCRF-CEM,0.313 µM (active)
same,GI50,NCI/ADR-RES,9.31 µM (inactive)
same,GI50,K562,1.53 µM (inactive)
same,GI50,SF-295,1.48 µM (inactive)
same,GI50,HCT-15,0.838 µM
same,GI50,SK-OV-3,7.53 µM (inactive)
same,GI50,ACHN,0.774 µM (active)
same,GI50,MDA-MB-435,3.78 µM (inactive)
COC1OC(C)C2OC(C)(C)OC2C1OC(C)=O (stereo not drawn),GI50,OVCAR-4,> 100 µM (inactive)
same,GI50,KM12,> 100 µM (inactive)
same,GI50,COLO 205,> 100 µM (inactive)
same,GI50,SN12C,> 100 µM (inactive)
same,GI50,LOX IMVI,> 100 µM (inactive)
same,GI50,MOLT-4,> 100 µM (inactive)
same,GI50,SNB-19,> 100 µM (inactive)
same,GI50,SW-620,> 100 µM (inactive)
same,GI50,NCI-H23,> 100 µM (inactive)
same,GI50,UACC-62,> 100 µM (inactive)
same,GI50,IGROV-1,> 100 µM (inactive)
same,GI50,LXFL 529,> 100 µM (inactive)
same,GI50,Malme-3M,> 100 µM (inactive)
same,GI50,U-251,> 100 µM (inactive)
same,GI50,M19-MEL,> 100 µM (inactive)
same,GI50,NCI-H460,> 100 µM (inactive)
same,GI50,NCI-H522,> 100 µM (inactive)
same,GI50,XF498,> 100 µM (inactive)
same,GI50,SNB-78,> 100 µM (inactive)
same,GI50,RXF 393,39.7 µM (inactive)
same,GI50,NCI-H226,> 100 µM (inactive)
same,GI50,UACC-257,> 100 µM (inactive)
same,GI50,DMS-273,> 100 µM (inactive)
same,GI50,RPMI-8226,> 100 µM (inactive)
same,GI50,CAKI-1,> 100 µM (inactive)
same,GI50,SR,> 100 µM (inactive)
same,GI50,HOP-62,> 100 µM (inactive)
same,GI50,HCT-116,> 100 µM (inactive)
same,GI50,TK-10,> 100 µM (inactive)
same,GI50,A549,> 100 µM (inactive)
same,GI50,KM-20L2,> 100 µM (inactive)
same,GI50,786-0,> 100 µM (inactive)
same,GI50,SK-MEL-5,> 100 µM (inactive)
same,GI50,A498,> 100 µM (inactive)
same,GI50,HCC 2998,> 100 µM (inactive)
same,GI50,OVCAR-3,> 100 µM (inactive)
same,GI50,OVCAR-5,> 100 µM (inactive)
same,GI50,SF-268,> 100 µM (inactive)
same,GI50,HOP-92,> 100 µM (inactive)
same,GI50,OVCAR-8,> 100 µM (inactive)
same,GI50,HT-29,> 100 µM (inactive)
same,GI50,HL-60,> 100 µM (inactive)
same,GI50,HOP-18,> 100 µM (inactive)
same,GI50,SF-539,> 100 µM (inactive)
same,GI50,M14,> 100 µM (inactive)
same,GI50,DLD-1,> 100 µM (inactive)
same,GI50,SK-MEL-28,> 100 µM (inactive)
same,GI50,RXF 631,> 100 µM (inactive)
same,GI50,CCRF-CEM,> 100 µM (inactive)
same,GI50,K562,> 100 µM (inactive)
same,GI50,SF-295,> 100 µM (inactive)
same,GI50,HCT-15,> 100 µM
same,GI50,ACHN,> 100 µM (inactive)
